Reference: patent US20240269106A1, “SMALL MOLECULE MODULATOR TARGETING A RARE HISTONE MODIFICATION REGULATING ADIPOGENESIS AND PHARMACEUTICAL FORMULATION THEREOF” (COUNCIL OF SCIENTIFIC AND INDUSTRIAL RESEARCH AN INDIAN …, priority 2021, published 2024)

What was measured:
Format in all cases: in vivo
[1] = tested on: histone butyrylation and acetylation in liver and adipose tissue; assay: Histone modifications in liver and adipose tissue of high fat diet mice
Experimental: Collected liver tissue samples were stored in 4% paraformaldehyde for 24 hours after which they were cryoprotected in 30% sucrose solution for two weeks. Cryosections were performed at 7 μm sections using Cryostat Leica CM1850 UV. For staining, the tissue sections were washed with PBS followed by antigen retrieval with 0.01 M citrate buffer (pH 6). The tissues were then permeabilised with 0.3% Triton X-100/PBS (PBST) and blocked with 2% serum followed by incubation with primary antibodies overnight at 4° C. The next day, secondary antibody incubation was carried out for one hour at room temperature followed by staining of the nuclei with Hoechst 33342 and mounting with 70% glycerol. Images were acquired by confocal microscopy. For quantitation, intensity of each modification specific staining was normalized with respect to the Hoechst staining intensity.
It was observed that H4K5 butyrylation in liver increased upon high fat diet consumption but was inhibited in presence of compound of Formula I (FIG. 10A). […] Acid extraction of histones was performed from the epididymal fat pads of mice using the same protocol as mentioned in example 7. It was observed that H4K5 butyrylation was reduced in the adipocytes of high fat diet fed mice treated with compound of Formula I compared to mice fed with high fat diet only (FIG. 10B).

[2] = tested on: genetically obese db/db mice; assay: Body weight gain of genetically obese db/db mice; conditions: 50 mg/kg oral gavage
Experimental: Male db+/− and genetically obese db/db mice (8 weeks old) were obtained and acclimatized for 1 week prior to experiments. Mice were maintained on a 12-hour light/dark cycle at 22+/−3° C. and a relative humidity of 55% and given ad libitum access to food and water.
The age-matched db+/− and db/db mice were maintained on a standard laboratory pelleted diet and water. db/db mice were oral gavaged (50 mg/kg) with LTK14A in 0.5% carboxymethyl cellulose, equal volume of the vehicle was orally gavaged to control db/db mice for a total period of 30 days. db+/− animals were kept as untreated normal control group. The body weights and feed intake was recorded every week throughout the experimental period. The lean and fat mass of the mice were determined using Echo MRI in live mice on day 15th and day 30th.
Trend of weight gaining after 30 days of genetically obese leptin receptor homozygous mutant mice with compound of Formula I was plotted against that of mutant mice treated with vehicle control and also heterozygous mutant mice (FIG. 10)(panel i). Average weight gain, average fat mass and average lean mass of the mice from the three groups are represented in bar p graphs (panel ii, iii and iv respectively); n=4 in each group:one-way ANOVA with Dunnett's multiple comparison; * P<0.05, ** P<0.01, *** P<0.001, ns: not significant.

[3] = tested on: histone butyrylation and acetylation in liver and adipose tissue; assay: Histone modifications in liver and adipose tissue of db/db mice
Experimental: Liver sample sectioning and immunohistochemical staining was performed using the same protocol as mentioned in example 15. It was observed that H4K5 butyrylation in liver increased in the db/db obese mice liver but was inhibited in presence of compound of Formula I (FIG. 13A). […] Acid extraction of histones was performed from the epididymal fat pads of mice using the same protocol as mentioned in example 7. It was observed that H4K5 butyrylation was reduced in the adipocytes of db/db mice treated with compound of Formula I compared to db/db mice treated with vehicle control (FIG. 13B).

[4] = tested on: genetically obese db/db mice; assay: Liver and adipose tissue of genetically obese db/db mice
Description: After the treatment of the mice with compound of Formula I for one month, the mice were sacrificed and their liver and epididymal fat pads were harvested. The organs were individually weighed and then processed for morphology study by hematoxylin and eosin staining.
Average weights of liver (i) and adipose tissue (ii) of the mice of the three different groups are represented by bar graphs (FIG. 11); n=4 in each group:one-way ANOVA with Dunnett's multiple comparison; * P<0.05, ** P<0.01, *** P<0.001, ns: not significant. Representative images of morphology of adipose tissue (iii) and liver (iv) from the mice of the three groups, as studied by hematoxylin and eosin staining.

[5] = tested on: C57BL/6J mice maintained on high fat diet; assay: Standardization of dosage and administration mode, intraperitoneal, high fat diet mice
Experimental: Male C57BL/6J mice (8 weeks old) bred in house were obtained and acclimatized for 1 week prior to experiments. Mice were maintained on a 12-hour light/dark cycle at 22+/−3° C. and a relative humidity of 55% and given ad libitum access to food and water. The age-matched C57BL/6J mice were maintained on a standard laboratory chow diet or high fat diet (60 kcal % fat) and water. Two groups were intraperitoneally injected with compound x at two different doses (20 mg/Kg bw and 50 mg/kg bw) twice every week. A third group was injected with equivalent volume of DMSO (for 50 mg/kg bw) as vehicle control. Body weight and food intake was measured twice every week.

[6] = tested on: C57BL/6J mice maintained on high fat diet; assay: Weight gain of mice maintained on high fat diet, compound mixed with diet; conditions: 50 mg/kg bw mixed with high fat diet
Experimental: Male C57BL/6J mice (8 weeks old) were obtained and acclimatized for 1 week prior to experiments. Mice were maintained on a 12-hour light/dark cycle at 22+/−3° C. and a relative humidity of 55% and given ad libitum access to food and water. The age-matched C57BL/6J mice were maintained on a standard laboratory chow diet or high fat diet (60 kcal % fat) with or without compound of Formula I (50 mg/kg body weight) and water. Body weight and food intake was measured twice every week.
Trend of weight gaining after 16 weeks of C57BL6/J mice maintained on normal chow diet, high fat diet and high fat diet mixed with compound of Formula I was plotted (FIG. 9) (panel i); n=4 in each group:one-way ANOVA with Dunnett's multiple comparison; * P<0.05, ** P<0.01, *** P<0.001, ns: not significant. Representative images of dissected bodies showing fat accumulation (panel ii) and epididymal fat pads (panel iii) of the mice from three groups. Representative images of morphology of adipose tissue (iv) and liver (v) from the mice of the three groups, as studied by hematoxylin and eosin staining.

[7] = epididymal fat pads, immunoblot

COc1ccc(C(=O)C2=C3OC(C)(C)[C@@H](CC=C(C)C)C[C@@]34C[C@@H](CC=C(C)C)C(C)(C)[C@@](CC=C(C)C)(C2=O)C4=O)cc1OC [Compound X]
H4K5 butyrylation in adipocytes [1, 7]: reduced
H4K5 butyrylation in liver ([1]; immunohistochemistry): inhibited
H4K12 and H3K14 acetylation in liver ([1]; immunohistochemistry): not affected
effect on fat mass compared to lean mass (Echo MRI) [2]: greater effect on fat mass
body weight ([2]; 30 days): reduction in body weight
H4K5 butyrylation in adipocytes [3, 7]: reduced
H4K5 butyrylation in liver ([3]; immunohistochemistry): inhibited
H4K12 and H3K14 acetylation in liver ([3]; immunohistochemistry): not affected
liver and epididymal fat pad weights ([4]; between db/db vehicle and db+/-): intermediate weights
symptoms of liver steatosis and adipose tissue hypertrophy ([4]; one month treatment): significantly reduced
weight gain ([5]; 20 mg/kg bw intraperitoneal twice every week): not sufficient for arresting weight gain
body weight ([5]; 50 mg/kg bw intraperitoneal twice every week, DMSO vehicle gave almost similar arrest): did have an attenuating effect
adipose tissue hypertrophy [6]: less hypertrophy
liver lipid accumulation [6]: less lipid accumulation
weight gain ([6]; 16 weeks): prevented weight gain
